Measured values reported in PubChem BioAssay (NCI).
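Five compound concentrations were applied to cells in 96-well plates for 48 hours; endpoints were derived by simple linear interpolation of the resulting dose-response curve. Here, GI50 denotes the concentration required for 50% inhibition of growth. At the TGI there is no net growth.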

How the values were obtained:
Assay in all cases: NCI-60 cell line screen, 48 h
[1] = tested on: DU-145 prostate
[2] = tested on: PC-3 prostate
[3] = tested on: MDA-MB-435
[4] = tested on: DMS 114 small cell lung
[5] = tested on: DLD-1 colon
[6] = tested on: XF 498 CNS
[7] = tested on: DMS 273 small cell lung
[8] = tested on: M19-MEL melanoma
[9] = tested on: LXFL 529 NSCLC
[10] = tested on: HOP-18 NSCLC

Row | Compound | GI50 [1] | TGI [1] | GI50 [2] | TGI [2] | GI50 [3] | TGI [3] | TGI [4] | TGI [5] | TGI [6] | TGI [7] | TGI [8] | TGI [9] | TGI [10]
1 | COc1cc(/C=C(/c2ccccc2)[N+](=O)[O-])c(OC)c2c1OCO2 | 1.64 µM | 3.02 µM | 1.71 µM | 3.59 µM | 1.5 µM | 3.08 µM |  |  |  |  |  |  | 
2 | CCN1C(=O)N(CC)C2C1NN=c1s/c(=C3\C(=O)N(C)c4ccccc43)c(=O)n12 (centres undefined) | 2.16 µM | > 100 µM | 1.14 µM | > 100 µM | 0.221 µM | 0.663 µM |  |  |  |  |  |  | 
3 | O=C(Nc1ccc2c(c1)oc(=O)c1ccccc12)C(Cl)Cl |  | > 100 µM |  | > 100 µM |  | > 100 µM |  |  |  |  |  |  | 
4 | O=C(O)c1c[nH]cc1C(=O)O |  |  |  |  |  |  | > 100 µM | > 100 µM | > 100 µM | > 100 µM | > 100 µM | > 100 µM | 
5 | CC(C)[C@@H](COC(C)(C)C)N=CN1CCc2c([nH]c3ccccc23)C1 |  |  |  |  |  |  | > 100 µM | > 100 µM | > 100 µM | > 100 µM |  | > 100 µM | 
6 | CCOc1ccc(NC(=O)CC2SC(N)=NC2=O)cc1 (centres undefined) |  |  |  |  |  |  | > 100 µM | > 100 µM | > 100 µM |  | > 100 µM | > 100 µM | 
7 | CC(=O)OC1C2(CC3N4C(=O)C5(CO)SSC4(CC31O)C(=O)N5C)OC(C)C(C)(C)C2=O (centres undefined) |  | 0.267 µM | 0.148 µM | 0.588 µM | 1.94 µM | 3.75 µM |  |  |  |  |  |  | 
8 | C=C[C@]1(C)C=C2C(=O)[C@@]3(O)OC[C@@]4(CCCC(C)(C)C43O)C2(O)C(O)C1 (some centres undefined) | 3.03 µM | 11.6 µM | 14.9 µM | 32.7 µM | 3.95 µM | 14.9 µM |  |  |  |  |  |  | 
9 | CC[CH2][Pb]([CH2]CC)([CH2]CC)[NH]S(=O)(=O)c1ccc(C)cc1 | 0.0853 µM | 0.444 µM | 0.0701 µM | 0.196 µM | 0.0194 µM | 0.0766 µM |  |  |  |  |  |  | 
10 | Cc1ccc2c(c1)ncn2-c1ncnc2c1CC(C)c1ccccc1N2C (centres undefined) | 0.244 µM | 15.6 µM | 0.0561 µM | 17.7 µM |  |  |  |  |  |  |  |  | 
11 | Cc1cc(N2CCCC2)nc(N(CCCNc2ccnc3cc(Cl)ccc23)Cc2ccc3c(c2)OCO3)n1 |  |  | 1.47 µM | 12 µM | 1.26 µM | 2.56 µM |  |  |  |  |  |  | 
12 | Nc1nc(OCc2ccccc2)nc2[nH]ncc12 | 18.4 µM | > 100 µM | 16.8 µM | 39.9 µM | 16.2 µM | 30.5 µM |  |  |  |  |  |  | 
13 | COc1ccc2c(c1)C(=O)c1c-2n(CCCN2CCOCC2)c(=O)c2ccccc12 | 2.39 µM | 10.2 µM | 8.67 µM | > 100 µM | 4.54 µM | > 100 µM |  |  |  |  |  |  | 
14 | CC(C)=CCC/C(C)=C/Cc1c(O)ccc2c1[nH]c1cc(O)c(C)cc12 |  |  |  |  |  |  | > 25 µM | > 25 µM | > 25 µM | > 25 µM | > 25 µM | > 25 µM | 
15 | O=C(NN1C(=O)CSC1c1ccc(Cl)cc1)c1[nH]c2ccc(F)cc2c1-c1ccccc1 (centres undefined) | 2.2 µM | 4.63 µM | 2.72 µM | 8.89 µM | 2.94 µM | 9.13 µM |  |  |  |  |  |  | 
16 | COC(=O)[C@@H]1CCCN1C(=O)[C@@H]1CCCN1C(=O)[C@@H](Cc1c[nH]c2ccccc12)NC(=S)Nc1cc(C(F)(F)F)cc(C(F)(F)F)c1 | 14.6 µM | > 100 µM | 2.95 µM | 24.9 µM | 2.44 µM | 6.8 µM |  |  |  |  |  |  | 
17 | Fc1ccc(Nc2nc(NCCNc3ccnc4cc(Cl)ccc34)nc(N3CCOCC3)n2)cc1 | 8.68 µM | 21.1 µM | 4.87 µM | 18.5 µM | 2.22 µM | 5.38 µM |  |  |  |  |  |  | 
18 | CS(=O)(=O)Nc1cc(-c2ccc3ncnc(Nc4ccc5c(cnn5Cc5ccc(F)cc5)c4)c3c2)cnc1Cl | 2.66 µM | 19.1 µM | 1.8 µM | 8.68 µM | 1.1 µM | 3.67 µM |  |  |  |  |  |  | 
19 | C=C(C)CCC(C)N1CCC(N2CCC(C(=O)NCCc3ccccc3)CC2)CC1 (centres undefined) | > 100 µM | > 100 µM | 79.2 µM | > 100 µM | 14 µM | 28.5 µM |  |  |  |  |  |  | 
20 | N/N=C(\Cc1ccccc1)NN=C(N)N |  |  |  |  |  |  |  | > 100 µM | > 100 µM |  | > 100 µM | > 100 µM | > 100 µM
21 | NCc1ccc(-n2c(-c3nonc3N)nc3cnccc32)cc1 | 11.4 µM | > 25 µM | > 19.3 µM | > 25 µM | 20.1 µM | > 25 µM |  |  |  |  |  |  | 
22 | N#CC1C(N)=NNC12Nc1ccccc1N2 (centres undefined) | 10.8 µM | > 100 µM | 22.2 µM | > 100 µM | 14.1 µM | 63.7 µM |  |  |  |  |  |  | 
23 | CC(C)OC(=O)c1ccc2[nH]c(O)c(C(=Nc3ccc(N(C)C(=O)CN4CCN(C)CC4)cc3)c3ccccc3)c2c1 | 0.408 µM | 1.63 µM | 0.494 µM | 2.17 µM | 1.07 µM | 2.3 µM |  |  |  |  |  |  | 
24 | COc1cnc2c(c1)C(=O)c1c-2n(CCCN2CCCC2)c(=O)c2cc(Cl)ccc12 |  |  | 0.859 µM | 9.48 µM | 5.06 µM | 10.9 µM |  |  |  |  |  |  | 
25 | Fc1ccc(Nc2nccc(-c3c(-c4ccc(C(F)(F)F)cc4)nn4ncccc34)n2)cc1F | > 25 µM | > 25 µM | > 25 µM | > 25 µM | > 25 µM | > 25 µM |  |  |  |  |  |  | 
26 | CC1=NN(C(=O)c2ccc(Cl)cc2)C(=O)/C1=C/c1cccc([N+](=O)[O-])c1 |  |  |  |  |  |  | > 100 µM | > 100 µM | > 100 µM |  | > 100 µM | > 100 µM | 
27 | O=C(Cc1ccccc1)N/N=C(\C1=Nc2ccc([N+](=O)[O-])cc2NC1O)C(O)c1ccc([N+](=O)[O-])cc1 (centres undefined) |  |  |  |  |  |  |  | > 100 µM | > 100 µM |  | > 100 µM | > 100 µM | > 100 µM
28 | O=c1[nH]cnc2c(C3OC(CO)C(O)C3O)scc12 (centres undefined) | 5.47 µM | > 100 µM | 37.9 µM | > 100 µM | > 100 µM | > 100 µM |  |  |  |  |  |  | 
29 | CCOC(=O)c1c(C)n(Cc2ccc(Cl)cc2Cl)c2c1cc1oc(=O)c(=O)n3c(Cc4ccccc4)nc2c13 | 2.45 µM | 6.64 µM | 2.06 µM | 5.01 µM | 4.55 µM | 16.9 µM |  |  |  |  |  |  | 
